Broadly, the amount remaining is what is left of the initial amount, in per cent. For orientation: IC50 means the concentration that gives 50% inhibition. A low value points to higher potency.

These results are taken from patent EP4471049A1 (Zealand Pharma A/S, priority 2023, dated 2024).

*1 amine or outer side, *2 acyl side, *3 side chain or, on linkers, in order; H or OH if unused. Where a SMILES comes first, the peptide text is derived from it. Bridges are numbered along the chain shown (N, C = ends). [ ]: non-standard residue; d: D form. 2Nal = N[C@@H](Cc1ccc2ccccc2c1)C(=O)O; AEF = NCCOc1ccc(C[C@H](N)C(=O)O)cc1; X1 = O=C(Cc1ccc(CN[*:1])cc1)[*:2]; 3Pal = N[C@@H](Cc1cccnc1)C(=O)O; αMeL = CC(C)C[C@](C)(N)C(=O)O; Dab = NCC[C@H](N)C(=O)O

Series [1] has as its target T1, human IL-23R (Homo sapiens, UniProt Q5VWK5).
T1 sequence (Q5VWK5 22-629): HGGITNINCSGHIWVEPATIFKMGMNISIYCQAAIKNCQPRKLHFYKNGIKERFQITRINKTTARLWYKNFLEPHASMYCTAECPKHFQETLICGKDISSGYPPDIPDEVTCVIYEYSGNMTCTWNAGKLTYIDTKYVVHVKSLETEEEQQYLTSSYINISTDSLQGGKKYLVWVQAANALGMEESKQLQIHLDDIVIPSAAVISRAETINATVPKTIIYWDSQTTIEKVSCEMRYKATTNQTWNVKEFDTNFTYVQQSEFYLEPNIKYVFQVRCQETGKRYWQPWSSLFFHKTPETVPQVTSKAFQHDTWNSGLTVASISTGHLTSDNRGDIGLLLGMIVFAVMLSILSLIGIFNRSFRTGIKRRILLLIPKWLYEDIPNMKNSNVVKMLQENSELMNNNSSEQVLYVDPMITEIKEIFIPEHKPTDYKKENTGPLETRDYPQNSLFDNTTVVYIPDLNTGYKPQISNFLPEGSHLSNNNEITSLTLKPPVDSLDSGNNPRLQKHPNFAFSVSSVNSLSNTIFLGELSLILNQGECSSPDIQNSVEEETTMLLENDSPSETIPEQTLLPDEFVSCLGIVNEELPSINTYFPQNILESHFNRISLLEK
Put plainly: biochemical. Conditions: for Emax: read-out: % displacement (hIL-23R binding). In a few lines: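 Membranes from HEK293 cells stably expressing Nluc-tagged human IL-23R were incubated 2 h at room temperature with test compound and a fluorophore-labelled tracer. After substrate addition, loss of BRET (TAMRA over luciferase emission) reported tracer displacement. A 4PL fit gave IC50 values.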

Series [2] in a line: Peptide stability in simulated intestinal fluid (SIF). It is filed as in vitro ADME. The note with it: 37 °C, pH 6.8, porcine pancreatin 10 g/L, 10 µM; for remaining at 1 h, 10 µM / remaining at 4 h, 10 µM: pig, simulated intestinal fluid (SIF) with porcine pancreatin; for remaining at 4 h, 10 µM: read-out: SIF (% remaining 4 h). The method, then: (§1) SGF was prepared by dissolving sodium chloride (0.2 g) in 50 mL of water. A volume of 0.7 mL of 10 M HCl was added to adjust the pH of the solution to 1.2 and the volume made up to 100 mL with water. […] SIF was prepared by dissolving monobasic potassium phosphate (0.68 g) in 50 mL of water and adjusting the pH to 6.8 with 1 M NaOH. The volume was subsequently made up to 100 mL with water. 200 mg porcine pancreatin (P1625, Sigma Aldrich) was gently dissolved into 20 mL preheated (37 °C) solution (10 g/L) immediately prior to the incubation.
(§2) The incubation was performed at 37 °C with gentle shaking. […] After the last timepoint, the sampling plate was mixed for 10 min on a shaking table and centrifuged 10 min at 2200 g. 70 µL resulting supernatant was diluted with 150 µL water, mixed and centrifugated before analysis by liquid chromatography high resolution mass spectrometry. […] Percent remaining at each timepoint was calculated relative to timepoint zero based on absolute peak areas.
Compounds with a SIF stability (after 4 h) above 70% are considered highly SIF stable.

The nature of series [3]: Peptide stability in simulated gastric fluid (SGF). Format: in vitro ADME. The note with it: 37 °C, pH 1.2, porcine pepsin 3.2 g/L; for remaining at 1 h, 10 µM / remaining at 4 h, 10 µM: pig, simulated gastric fluid (SGF) with porcine pepsin; for SGF (% remaining 1 h) / SGF (% remaining 4 h): 10 µM. The method, then:
as §1, §2
Compounds with a SGF stability (after 4 h) above 70% are considered highly SGF stable. […] Table 3-4: SGF data

In the case of `CNC(=O)[C@H](Cc1cccnc1)NC(=O)[C@](C)(CO)NC(=O)[C@@H]1CCC(=O)NCc2ccc(cc2)CC(=O)N[C@@H](CO)C(=O)N[C@H]2CCC(=O)NCC[C@H](NC(=O)[C@H](CCC(N)=O)NC(=O)[C@H](Cc3c[nH]c4ccccc34)NC2=O)C(=O)N[C@@H](Cc2ccc(OCCN)cc2)C(=O)N[C@@H](Cc2ccc3ccccc3c2)C(=O)N[C@@](C)(CC(C)C)C(=O)N1` [Compound 39, [4-Aminomethyl-phenylacetyl](1c)*SE(2c)WQ[Dab](2c)[Y(2-aminoethoxy)][2-Nal][2-Me-Leu]E(1c)[2-Me-Ser][3-(3-Pyridyl)-Ala]-[NHMe]], the Emax in series [1] is 99%. Moreover, the amount remaining at 1 h, 10 µM was 100% in series [2] (1 h) and 99% in series [3].
For `CNC(=O)[C@H](Cc1cccnc1)NC(=O)[C@H](CO)NC(=O)[C@@H]1CCC(=O)NCc2ccc(cc2)CC(=O)N[C@@H](C)C(=O)N[C@H]2CCC(=O)NCC[C@H](NC(=O)[C@H](CCC(N)=O)NC(=O)[C@H](Cc3c[nH]c4ccccc34)NC2=O)C(=O)N[C@@H](Cc2ccc(OCCN)cc2)C(=O)N[C@@H](Cc2ccc3ccccc3c2)C(=O)N[C@@](C)(CC(C)C)C(=O)N1` [Compound 40, [4-Aminomethyl-phenylacetyl](1c)*AE(2c)WQ[Dab](2c)[Y(2-aminoethoxy)][2-Nal][2-Me-Leu]E(1c)S[3-(3-Pyridyl)-Ala]-[NHMe]] ([X1]AEWQ[Dab][AEF][2Nal][αMeL]ES[3Pal]-NHMe; lactam 3-6, N-10), in series [1], the “% displacement (hIL-23R binding)” value is reported as 100% and it took 0.019 nM to reach half-maximal inhibition (IC50). For the same compound, the amount remaining at 4 h, 10 µM in series [2] (4 h) is 80%. Also, in series [3], the amount remaining at 1 h, 10 µM was 89%.
`CNC(=O)[C@H](Cc1cccnc1)NC(=O)[C@H](CCN)NC(=O)[C@@H]1CCC(=O)NCc2ccc(cc2)CC(=O)N[C@@H](C)C(=O)N[C@H]2CCC(=O)NCC[C@H](NC(=O)[C@H](CCC(N)=O)NC(=O)[C@H](Cc3c[nH]c4ccccc34)NC2=O)C(=O)N[C@@H](Cc2c[nH]c3ncccc23)C(=O)N[C@@H](Cc2ccc3ccccc3c2)C(=O)NC(C)(C)C(=O)N1` [Compound 43, [4-Aminomethyl-phenylacetyl](1c)*AE(2c)WQ[Dab](2c)[7-AzaTrp][2-Nal][Aib]E(1c)[Dab][3-(3-Pyridyl)-Ala]-[NHMe]]: in series [1], the “% displacement (hIL-23R binding)” value was 101% and the IC50 turned out to be 0.048 nM. Also, the share remaining at 4 h, 10 µM in series [2] (4 h) was 92%. Further, in series [3], the fraction remaining at 4 h, 10 µM was 98%.
On to `CNC(=O)[C@H](Cc1cccnc1)NC(=O)[C@H](CCC(N)=O)NC(=O)[C@@H]1CCC(=O)NCc2ccc(cc2)CC(=O)N[C@@H](CO)C(=O)N[C@H]2CCC(=O)NCC[C@H](NC(=O)[C@H](CCC(N)=O)NC(=O)[C@H](Cc3c[nH]c4ccccc34)NC2=O)C(=O)N[C@@H](Cc2ccc(OCCN)cc2)C(=O)N[C@@H](Cc2ccc3ccccc3c2)C(=O)N[C@@](C)(CC(C)C)C(=O)N1` [Compound 33, [4-Aminomethyl-phenylacetyl](1c)*SE(2c)WQ[Dab](2c)[Y(2-aminoethoxy)][2-Nal][2-Me-Leu]E(1c)Q[3-(3-Pyridyl)-Ala]-[NHMe]] ([X1]SEWQ[Dab][AEF][2Nal][αMeL]EQ[3Pal]-NHMe; lactam 3-6, N-10), for which, in series [1], the IC50 worked out at 0.014 nM and the Emax is 92%. Besides, the fraction remaining at 4 h, 10 µM in series [2] (4 h) was 69%. The amount remaining at 4 h, 10 µM in series [3] was 93%.
`CC(C)C[C@]1(C)NC(=O)[C@H](Cc2ccc3ccccc3c2)NC(=O)[C@H](Cc2ccc(OCCN)cc2)NC(=O)[C@@H]2CCNC(=O)CC[C@H](NC(=O)[C@H](CO)NC(=O)Cc3ccc(cc3)CNC(=O)CC[C@@H](C(=O)N[C@@H](CCN)C(=O)N[C@@H](Cc3cn(C)cn3)C(N)=O)NC1=O)C(=O)N[C@@H](Cc1c[nH]c3ccccc13)C(=O)N[C@@H](CCC(N)=O)C(=O)N2` [Compound 14, [4-Aminomethyl-phenylacetyl](1c)*SE(2c)WQ[Dab](2c)[Y(2-aminoethoxy)][2-Nal][2-Me-Leu]E(1c)[Dab][H(Me)]-[NH2]]: the “% displacement (hIL-23R binding)” value in series [1] is given as 102%. The fraction remaining at 4 h, 10 µM in series [2] (4 h) is 75%; in series [3], 82%.
Consider `CC(C)C[C@@H]1NC(=O)[C@H](Cc2c[nH]c3ccccc23)NC(=O)[C@H](Cc2c[nH]c3ccccc23)NC(=O)[C@@H]2CSCC(=O)CSC[C@H](NC(=O)[C@H](CO)NC(=O)[C@@H](NC(=O)[C@@H](N)CC(=O)O)CCC(=O)NCCCC[C@@H](C(=O)N[C@@H](CCCNC(=N)N)C(N)=O)NC1=O)C(=O)N[C@@H](Cc1c[nH]c3ccccc13)C(=O)N[C@@H](CCC(N)=O)C(=O)N2` [Ref 4, H-DE(1c)SC(2a)WQC(2a)WWLK(1c)R-[NH2], reference compound] (HELM PEPTIDE1{D.E.S.C.W.Q.C.W.W.L.K.R.[am]}|CHEM1{[O=C(C[*:1])C[*:2]]}$PEPTIDE1,PEPTIDE1,2:R3-11:R3|PEPTIDE1,CHEM1,4:R3-1:R1|PEPTIDE1,CHEM1,7:R3-1:R2$$$V2.0), for which, in series [3], the “SGF (% remaining 1 h)” value is 1% and the “SGF (% remaining 4 h)” value was 0%.
For `CCCC[C@H](NC(=O)[C@@H]1CCC(=O)NCc2ccc(cc2)CC(=O)N[C@@H](CO)C(=O)N[C@H]2CCC(=O)NCC[C@H](NC(=O)[C@H](CCC(N)=O)NC(=O)[C@H](Cc3c[nH]c4ccccc34)NC2=O)C(=O)N[C@@H](Cc2ccc(OCCN)cc2)C(=O)N[C@@H](Cc2ccc3ccccc3c2)C(=O)N[C@@](C)(CC(C)C)C(=O)N1)C(=O)N[C@@H](Cc1cccnc1)C(=O)NC` [Compound 32, [4-Aminomethyl-phenylacetyl](1c)*SE(2c)WQ[Dab](2c)[Y(2-aminoethoxy)][2-Nal][2-Me-Leu]E(1c)[Nle][3-(3-Pyridyl)-Ala]-[NHMe]], in series [1], the “% displacement (hIL-23R binding)” value is listed as 98% and inhibition was half-maximal at 0.027 nM (IC50). In series [2] (4 h), the fraction remaining at 4 h, 10 µM is 65%. In addition, in series [3], the share remaining at 1 h, 10 µM is 96%.
With `CNC(=O)[C@H](Cc1cccnc1)NC(=O)[C@H](Cc1c[nH]cn1)NC(=O)[C@@H]1CCC(=O)NCc2ccc(cc2)CC(=O)N[C@@H](CO)C(=O)N[C@H]2CCC(=O)NCC[C@H](NC(=O)[C@H](CCC(N)=O)NC(=O)[C@H](Cc3c[nH]c4ccccc34)NC2=O)C(=O)N[C@@H](Cc2ccc(OCCN)cc2)C(=O)N[C@@H](Cc2ccc3ccccc3c2)C(=O)N[C@@](C)(CC(C)C)C(=O)N1` [Compound 34, [4-Aminomethyl-phenylacetyl](1c)*SE(2c)WQ[Dab](2c)[Y(2-aminoethoxy)][2-Nal][2-Me-Leu]E(1c)H[3-(3-Pyridyl)-Ala]-[NHMe]] ([X1]SEWQ[Dab][AEF][2Nal][αMeL]EH[3Pal]-NHMe; lactam 3-6, N-10), in series [1], the “% displacement (hIL-23R binding)” value is 90% and the IC50 was determined as 0.013 nM. The compound also gave a share remaining at 1 h, 10 µM in series [2] (1 h) of 87%. Also, the share remaining at 4 h, 10 µM in series [2] (4 h) was 56%. In series [3], the amount remaining at 1 h, 10 µM was 96%.
For `CC(C)C[C@@H]1NC(=O)[C@H](Cc2c[nH]c3ccccc23)NC(=O)[C@H](Cc2c[nH]c3ccccc23)NC(=O)[C@@H]2CSCC(=O)CSC[C@H](NC(=O)[C@H](CO)NC(=O)[C@@H](NC(=O)[C@@H](N)CC(=O)O)CSCC(=O)CSC[C@@H](C(=O)N[C@@H](CCCNC(=N)N)C(N)=O)NC1=O)C(=O)N[C@@H](Cc1c[nH]c3ccccc13)C(=O)N[C@@H](CCC(N)=O)C(=O)N2` (single isomer, unassigned) [I3 (isomer 3), H-DC(1a)SC(2a)WQC(2a)WWLC(1a)R-[NH2], reference compound], the “SIF (% remaining 1 h)” value in series [2] (1 h) is given as 0%. Moreover, in series [2] (4 h), the “SIF (% remaining 4 h)” value is given as 0%. Further, in series [3], the “SGF (% remaining 1 h)” value is 5% and the “SGF (% remaining 4 h)” value is 0%.
